From patent publication US20080305040A1, “In Vivo or in Vitro Method For Detecting Amyloid Deposits Having at Least One Amyloidogenic Protein” (UNIVERSITY OF PITTSBURGH, priority 2005, published 2008)

Test system: amyloid deposits in heart tissue, lung tissue, bladder tissue, lymph node tissue and bone from a subject with AL amyloidosis
Test: Imaging of tissues from AL amyloidosis subject: staining of paraffin sections, viewed with a UV filter set
Type: binding
Conditions: 100 nM stain, 60 min, deparaffinized paraffin sections from a subject with AL amyloidosis, FIG. 1
Procedure: Paraffin sections of heart, lung, bladder, lymph node and bone from a subject with AL amyloidosis were deparaffinized in xylene and stained with 100 nM X-34 [Styren et al. J Histochem Cytochem 48:1223-1232 (2000)] in 20% ethanol/80% 150 mM Tris Buffer (pH 7.4) or 100 nM 2-(4′-methylaminophenyl)-6-cyanobenzothiazole (6-CN-BTA-1) [Mathis et al. J Med Chem 46:2740-2754 (2003)] in PBS (pH 7.4) for 60 min followed by a brief, 5 second wash in water followed by coverslipping and viewing with an UV filter set (FIG. 1).

| binding to amyloid deposits in heart tissue, lung tissue, bladder tissue, lymph node tissue and bone | SMILES |
| --- | --- |
| binding | CNc1ccc(-c2nc3ccc(C#N)cc3s2)cc1 [Example 6-CN-BTA-1, 2-(4′-methylaminophenyl)-6-cyanobenzothiazole] |
| binding | O=C(O)c1cc(/C=C/c2ccc(/C=C/c3ccc(O)c(C(=O)O)c3)cc2)ccc1O [Example X-34] |
